What was measured:
[1] = system: Staphylococcus aureus ATCC 6538; test: mouse infected with Staphylococcus aureus infection model (survival); format: in vivo, BALB/c mice
Method in brief: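 BALB/c mice, at least 3 per group, made neutropenic with cyclophosphamide i.p. (250 mg/kg day 0, 100 mg/kg day 2). Infected i.p. on day 3 with 10 μl/g of S. aureus suspension at OD550 0.6 (ca. 10^10-10^12 CFU). Antibiotic given i.p. in PBS with 3% DMSO 30 min post-infection, then repeated; survival recorded.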

S. aureus ATCC 6538 = test: agar diffusion test (Test System II, multi-resistant germs); format: cell-based, Staphylococcus aureus
Method in brief: (§1)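 Semi-synthetic compounds were tested by disc diffusion at three loadings, 10, 50 and 100 μg per disc. Bacteria at McFarland 0.5 were spread on Müller-Hinton agar II; after 18-20 h at 37 °C the inhibition zone diameter was taken.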

S. aureus 38418 = test: as above; format: cell-based, Staphylococcus aureus
Method in brief: as §1

[2] = logP value by HPLC according to Donovan et al.; conditions: HPLC, methanol/0.1% phosphoric acid pH 2
Method in brief: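 Reversed-phase HPLC at 18-24° C with a methanol/0.1% phosphoric acid pH 2 gradient, 10% to 100% methanol over 9.4 min, 1.5 mL/min. Analyte co-injected with methyl phenyl sulfonate and toluene standards. logP derived from analyte/standard retention-time relationships.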

Molecule	Diameter of zone of inhibition (S. aureus ATCC 6538; Quantity n 0.029)	Diameter of zone of inhibition (S. aureus ATCC 6538; Quantity n 0.14)	Diameter of zone of inhibition (S. aureus ATCC 6538; Quantity n 0.29)	Diameter of zone of inhibition (S. aureus 38418; Quantity n [mol] 0.029)	Diameter of zone of inhibition (S. aureus 38418; Quantity n [mol] 0.14)	Diameter of zone of inhibition (S. aureus 38418; Quantity n [mol] 0.29)	Diameter of zone of inhibition (S. aureus ATCC 6538; Quantity n 0.019)	Diameter of zone of inhibition (S. aureus ATCC 6538; Quantity n 0.1)	Diameter of zone of inhibition (S. aureus ATCC 6538; Quantity n 0.19)	Diameter of zone of inhibition (S. aureus 38418; Quantity n [mol] 0.019)	Diameter of zone of inhibition (S. aureus 38418; Quantity n [mol] 0.1)	Diameter of zone of inhibition (S. aureus 38418; Quantity n [mol] 0.19)	Survival/tested mice n/n ([1]; 2 × 0.5 mg (25 mg/kg) i.p.)	further results
3-chlorine-7-[2-(2-methoxycarbonyl-3,6-dioxocyclohexa-1,4-dienylamino)-2-phenyl-acetylamino]-8-oxo-1-thia-5-azabicyclo[4.2.0]oct-3-en-4-carboxylic acid [1k]	28 mm	36 mm	38 mm	22 mm	30 mm	34 mm	–	–	–	–	–	–	–	Survival/tested mice n/n ([1]; 2 × 1.5 mg (75 mg/kg) i.p.): 3/3
7-[2-(2-carbamoyl-3,6-dioxocyclohexa-1,4-dienylamino)-2-(4-hydroxyphenyl)-acetylamino]-desacetoxycephalosporanic acid [1b]	–	–	–	–	–	–	16 mm	24 mm	28 mm	16 mm	24 mm	26 mm	–	Survival/tested mice n/n ([1]; 2 × 1.0 mg (50 mg/kg) i.p.): 6/6
7-[2-(2-ethoxycarbonyl-3,6-dioxocyclohexa-1,4-dienylamino)-2-(4-hydroxyphenyl)-acetylamino]-desacetoxycephalosporanic acid [1d]	14 mm	22 mm	26 mm	10 mm	20 mm	24 mm	–	–	–	–	–	–	4/6	–
7-{2-2-(2-hydroxyethylcarbamoyl)-3,6-dioxyocyclohexa-1,4-dienylamino]-2-(4-hydroxyphenyl)-acetylamino}-desacetoxycephalosporanic acid [1a]	–	–	–	–	–	–	20 mm	28 mm	30 mm	14 mm	24 mm	26 mm	9/9	–
7-{2-[2-(2-hydroxyethylcarbamoyl)-3,6-dioxocyclohexa-1,4-dienylamino]-2-phenyl-acetylamino}-desacetoxycephalosporanic acid [1e]	20 mm	30 mm	32 mm	14 mm	26 mm	30 mm	–	–	–	–	–	–	3/3	–
CC1=C(C(=O)O)N2C(=O)C(NC(=O)C(NC3=C(C(N)=O)C(=O)C=CC3=O)c3ccccc3)C2SC1 (stereo not shown) [1f, 7-[2-(2-carbamoyl-3,6-dioxocyclohexa-1,4-dienylamino)-2-phenyl-acetylamino]-desacetoxycephalosporanic acid]	–	–	–	–	–	–	–	30 mm	–	–	24 mm	–	3/3	Diameter of zone of inhibition (S. aureus ATCC 6538; Quantity n 0.02): 20 mm; Diameter of zone of inhibition (S. aureus ATCC 6538; Quantity n 0.2): 34 mm; Diameter of zone of inhibition (S. aureus 38418; Quantity n [mol] 0.02): 14 mm; Diameter of zone of inhibition (S. aureus 38418; Quantity n [mol] 0.2): 30 mm
O=C(O)C1=C(Cl)CSC2C(NC(=O)C(NC3=C(C(=O)NCCO)C(=O)C=CC3=O)c3ccccc3)C(=O)N12 (stereo not shown) [1i, 3-chlorine-7-{2-[2-(2-hydroxyethylcarbamoyl)-3,6-dioxocyclohexa-1,4-dienylamino]-2-phenyl-acetylamino}-8-oxo-1-thia-5-azabicyclo[4.2.0]oct-3-en-4-carboxylic acid]	26 mm	34 mm	36 mm	20 mm	30 mm	34 mm	–	–	–	–	–	–	12/12	logP value [2]: 1.81
NC(=O)C1=C(NC(C(=O)NC2C(=O)N3C(C(=O)O)=C(Cl)CSC23)c2ccccc2)C(=O)C=CC1=O (stereo not shown) [1j, 3-chlorine-7-[2-(2-carbamoyl-3,6-dioxocyclohexa-1,4-dienylamino)-2-phenyl-acetylamino]-8-oxo-1-thia-5-azabicyclo[4.2.0]oct-3-en-4-carboxylic acid]	–	–	–	–	–	–	–	34 mm	–	–	30 mm	–	3/3	Diameter of zone of inhibition (S. aureus ATCC 6538; Quantity n 0.02): 28 mm; Diameter of zone of inhibition (S. aureus ATCC 6538; Quantity n 0.2): 38 mm; Diameter of zone of inhibition (S. aureus 38418; Quantity n [mol] 0.02): 22 mm; Diameter of zone of inhibition (S. aureus 38418; Quantity n [mol] 0.2): 34 mm
CCOC(=O)C1=C(NC(C(=O)NC2C(=O)N3C(C(=O)O)=C(Cl)CSC23)c2ccccc2)C(=O)C=CC1=O (stereo not shown) [1l]	–	–	–	–	–	–	24 mm	–	34 mm	18 mm	–	30 mm	–	Survival/tested mice n/n ([1]; 2 × 1.0 mg (50 mg/kg) i.p.): 3/3; Diameter of zone of inhibition (S. aureus ATCC 6538; Quantity n 0.09): 30 mm; Diameter of zone of inhibition (S. aureus 38418; Quantity n [mol] 0.09): 28 mm

From patent US20110040086A1, “Novel Beta-Lactam Antibiotics, Methods for Their Production, and Their Use” (DRITTE PATENTPORTFOLIO BETEILIGUNGSGESELLSCHAFT MB, priority 2007, published 2011)
